Data reported in patent US10968225B2, “Compounds and compositions for the treatment of cystic fibrosis” (Fondazione Istituto Italiano Di Tecnologia, priority 2017, dated 2021).

Molecular target: T1, mutant CFTR (Homo sapiens, UniProt P13569, DEL508-508)
T1 construct: expressed in transfected cells
Experiment: Fluorescence (HS-YFP) assay for CFTR activity, corrector assay
Format: cell-based
Conditions: CFBE41o- and FRT cells with stable expression of mutant CFTR, read-out: activity (EC50)

T1 sequence (P13569 with tags, fused parts or gaps DEL508-508): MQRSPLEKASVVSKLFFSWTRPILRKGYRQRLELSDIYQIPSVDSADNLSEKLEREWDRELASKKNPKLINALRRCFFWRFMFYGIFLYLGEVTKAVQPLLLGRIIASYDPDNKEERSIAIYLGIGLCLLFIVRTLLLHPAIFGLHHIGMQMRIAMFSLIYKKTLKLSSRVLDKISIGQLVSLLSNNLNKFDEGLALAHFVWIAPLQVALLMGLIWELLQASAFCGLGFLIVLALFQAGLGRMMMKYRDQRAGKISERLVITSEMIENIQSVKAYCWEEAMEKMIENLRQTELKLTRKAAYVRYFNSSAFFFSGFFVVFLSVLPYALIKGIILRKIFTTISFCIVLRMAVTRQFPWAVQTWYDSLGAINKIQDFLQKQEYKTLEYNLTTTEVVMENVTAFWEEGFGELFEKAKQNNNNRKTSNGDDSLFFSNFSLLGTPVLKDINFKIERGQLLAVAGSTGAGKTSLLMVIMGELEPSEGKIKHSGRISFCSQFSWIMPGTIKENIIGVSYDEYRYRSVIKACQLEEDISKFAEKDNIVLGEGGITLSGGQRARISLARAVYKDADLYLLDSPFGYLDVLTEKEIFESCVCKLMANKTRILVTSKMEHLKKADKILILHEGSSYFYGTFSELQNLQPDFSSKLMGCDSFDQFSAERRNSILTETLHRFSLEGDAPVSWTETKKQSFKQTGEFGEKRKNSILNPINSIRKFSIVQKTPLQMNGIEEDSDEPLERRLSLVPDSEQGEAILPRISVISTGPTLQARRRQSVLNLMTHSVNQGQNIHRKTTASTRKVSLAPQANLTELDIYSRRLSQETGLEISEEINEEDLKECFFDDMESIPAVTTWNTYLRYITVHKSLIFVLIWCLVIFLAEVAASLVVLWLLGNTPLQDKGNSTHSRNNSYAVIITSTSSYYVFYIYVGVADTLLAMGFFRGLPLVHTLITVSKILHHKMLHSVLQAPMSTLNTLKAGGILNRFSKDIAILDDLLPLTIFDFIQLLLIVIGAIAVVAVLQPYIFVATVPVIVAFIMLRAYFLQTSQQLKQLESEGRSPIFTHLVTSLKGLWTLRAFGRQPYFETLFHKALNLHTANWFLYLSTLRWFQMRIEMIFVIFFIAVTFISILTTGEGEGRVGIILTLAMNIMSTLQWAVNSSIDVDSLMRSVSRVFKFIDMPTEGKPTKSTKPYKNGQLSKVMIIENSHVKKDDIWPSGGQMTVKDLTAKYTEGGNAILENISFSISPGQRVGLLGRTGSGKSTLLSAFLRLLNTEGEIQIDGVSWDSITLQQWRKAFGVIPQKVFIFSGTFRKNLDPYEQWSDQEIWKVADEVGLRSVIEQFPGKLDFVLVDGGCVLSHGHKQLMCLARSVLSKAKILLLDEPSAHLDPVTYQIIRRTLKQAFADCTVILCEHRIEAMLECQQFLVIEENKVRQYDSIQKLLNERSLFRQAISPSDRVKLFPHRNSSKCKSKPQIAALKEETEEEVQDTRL

SMILES	EC50 [nM]
CN(C(=O)c1cccc(-n2nc(C(F)(F)F)c3c2C(Oc2cc(C(=O)O)ccn2)CCC3)c1)c1ccc2c(c1)OC(F)(F)O2 (single isomer, unassigned) [Compound 198, (R) or (S)-2-[[1-[3-[(2,2-Difluoro-1,3-benzodioxol-5-yl)-methyl-carbamoyl]phenyl]-3-(trifluoromethyl)-4,5,6,7-tetrahydroindazol-7-yl]oxy]pyridine-4-carboxylic acid]	< 1000
CN(C(=O)c1cccc(-n2nc(C(F)(F)F)c3c2C(Oc2ccc(C(=O)O)cc2)COC3)c1)c1ccc2c(c1)OC(F)(F)O2 (single isomer, unassigned) [Compound 205, (R) or (S)-4-[[1-[3-[(2,2-Difluoro-1,3-benzodioxol-5-yl)-methyl-carbamoyl]phenyl]-3-(trifluoromethyl)-6,7-dihydro-4H-pyrano[4,3-c]pyrazol-7-yl]oxy]benzoic acid]	< 1000
CN(C(=O)c1cccc(-n2nc(C(F)(F)F)c3c2C(Oc2ccc(C(=O)O)cc2)COC3)c1)c1ccc2c(c1)OC(F)(F)O2 (single isomer, unassigned) [Compound 206, (S) or (R)-4-[[1-[3-[(2,2-Difluoro-1,3-benzodioxol-5-yl)-methyl-carbamoyl]phenyl]-3-(trifluoromethyl)-6,7-dihydro-4H-pyrano[4,3-c]pyrazol-7-yl]oxy]benzoic acid]	< 1000
Cc1cc2ncc(N(C)C(=O)c3cccc(-n4nc(C(F)(F)F)c5c4[C@H](Oc4ccc(C(=O)O)cc4)CCC5)c3)cn2n1 (single isomer, unassigned) [Compound 217, (S) or (R)-4-[[1-[3-[Methyl-(2-methylpyrazolo[1,5-a]pyrimidin-6-yl)carbamoyl]phenyl]-3-(trifluoromethyl)-4,5,6,7-tetrahydroindazol-7-yl]oxy]benzoic acid]	< 1000
Cc1cc2ncc(N(C)C(=O)c3cccc(-n4nc(C(F)(F)F)c5c4[C@@H](Oc4ccc(C(=O)O)cc4)CCC5)c3)cn2n1 (single isomer, unassigned) [Compound 218, (R) or (S)-4-[[1-[3-[Methyl-(2-methylpyrazolo[1,5-a]pyrimidin-6-yl)carbamoyl]phenyl]-3-(trifluoromethyl)-4,5,6,7-tetrahydroindazol-7-yl]oxy]benzoic acid]	1000 to 2000
CN(C(=O)c1cccc(-n2nc(C(F)(F)F)c3c2C(Oc2cncc(C(=O)O)c2)CCC3)c1)c1ccc2c(c1)OC(F)(F)O2 (single isomer, unassigned) [Compound 271, (S) or (R)-5-[[1-[3-[(2,2-Difluoro-1,3-benzodioxol-5-yl)-methyl-carbamoyl]phenyl]-3-(trifluoromethyl)-4,5,6,7-tetrahydroindazol-7-yl]oxy]pyridine-3-carboxylic acid]	< 1000
CN(C(=O)c1cccc(-n2nc(C(F)(F)F)c3c2C(Oc2cncc(C(=O)O)c2)CCC3)c1)c1ccc2c(c1)OC(F)(F)O2 (single isomer, unassigned) [Compound 272, (R) or (S)-5-[[1-[3-[(2,2-Difluoro-1,3-benzodioxol-5-yl)-methyl-carbamoyl]phenyl]-3-(trifluoromethyl)-4,5,6,7-tetrahydroindazol-7-yl]oxy]pyridine-3-carboxylic acid]	1000 to 2000
CN(C(=O)c1cccc(-n2nc(C(F)(F)F)c3c2C(Oc2ccc(C(=O)O)cc2)CCC3)c1)c1cnc2c(c1)OCC2 (single isomer, unassigned) [Compound 275, (S) or (R)-4-[[1-[3-[2,3-Dihydrofuro[3,2-b]pyridin-6-yl(methyl)carbamoyl]phenyl]-3-(trifluoromethyl)-4,5,6,7-tetrahydroindazol-7-yl]oxy]benzoic acid]	< 1000
CN(C(=O)c1cccc(-n2nc(C(F)(F)F)c3c2C(Oc2ccc(C(=O)O)cc2)CCC3)c1)c1cnc2c(c1)OCC2 (single isomer, unassigned) [Compound 276, (R) or (S)-4-[[1-[3-[2,3-Dihydrofuro[3,2-b]pyridin-6-yl(methyl)carbamoyl]phenyl]-3-(trifluoromethyl)-4,5,6,7-tetrahydroindazol-7-yl]oxy]benzoic acid]	1000 to 2000
CN(C(=O)c1cccc(-n2nc(C(F)(F)F)c3c2C(Oc2ccc(C(=O)O)cn2)COC3)c1)c1ccc2c(c1)OC(F)(F)O2 (single isomer, unassigned) [Compound 277, (S) or (R)-6-[[1-[3-[(2,2-difluoro-1,3-benzodioxol-5-yl)-methyl-carbamoyl]phenyl]-3-(trifluoromethyl)-6,7-dihydro-4H-pyrano[4,3-c]pyrazol-7-yl]oxy]pyridine-3-carboxylic acid]	< 1000
CN(C(=O)c1cccc(-n2nc(C(F)(F)F)c3c2C(Oc2ccc(C(=O)O)cn2)COC3)c1)c1ccc2c(c1)OC(F)(F)O2 (single isomer, unassigned) [Compound 278, (R) or (S)-6-[[1-[3-[(2,2-difluoro-1,3-benzodioxol-5-yl)-methyl-carbamoyl]phenyl]-3-(trifluoromethyl)-6,7-dihydro-4H-pyrano[4,3-c]pyrazol-7-yl]oxy]pyridine-3-carboxylic acid]	< 1000
CN(C(=O)c1cccc(-n2nc(C(F)(F)F)c3c2C(Oc2ccc(C(=O)O)cc2)CCC3)c1)c1ccc2c(c1)OCC2 (single isomer, unassigned) [Compound 279, (S) or (R)-4-[[1-[3-[2,3-dihydrobenzofuran-6-yl(methyl)carbamoyl]phenyl]-3-(trifluoromethyl)-4,5,6,7-tetrahydroindazol-7-yl]oxy]benzoic acid]	< 1000
CN(C(=O)c1cccc(-n2nc(C(F)(F)F)c3c2C(Oc2ccc(C(=O)O)cc2)CCC3)c1)c1ccc2c(c1)OCC2 (single isomer, unassigned) [Compound 280, (R) or (S)-4-[[(1-[3-[2,3-dihydrobenzofuran-6-yl(methyl)carbamoyl]phenyl]-3-(trifluoromethyl)-4,5,6,7-tetrahydroindazol-7-yl]oxy]benzoic acid]	< 1000
CN(C(=O)c1cccc(-n2nc(C(F)(F)F)c3c2C(Oc2ccc(C(=O)O)cc2)COC3)c1)c1ccc2c(c1)OCC2 (single isomer, unassigned) [Compound 282, (R) or (S)-4-[[1-[3-[2,3-dihydrobenzofuran-6-yl(methyl)carbamoyl]phenyl]-3-(trifluoromethyl)-6,7-dihydro-4H-pyrano[4,3-c]pyrazol-7-yl]oxy]benzoic acid]	< 1000
CN(C(=O)c1cccc(-n2nc(C(F)(F)F)c3c2C(Oc2ccc(C(=O)O)cc2)COC3)c1)c1ccc2c(c1)OCC2 (single isomer, unassigned) [Compound 283, (S) or (R)-4-[[1-[3-[2,3-dihydrobenzofuran-6-yl(methyl)carbamoyl]phenyl]-3-(trifluoromethyl)-6,7-dihydro-4H-pyrano[4,3-c]pyrazol-7-yl]oxy]benzoic acid]	1000 to 2000
CN(C(=O)c1cccc(-n2nc(C(F)(F)F)c3c2C(Oc2ccc(C(N)=O)cc2)CCC3)c1)c1ccc2c(c1)OC(F)(F)O2 (single isomer, unassigned) [Compound 284, (S) or (R)-3-[7-(4-Carbamoylphenoxy)-3-(trifluoromethyl)-4,5,6,7-tetrahydroindazol-1-yl]-N-(2,2-difluoro-1,3-benzodioxol-5-yl)-N-methyl-benzamide]	< 1000
CN(C(=O)c1cccc(-n2nc(C(F)(F)F)c3c2C(Oc2ccc(C(N)=O)cc2)CCC3)c1)c1ccc2c(c1)OC(F)(F)O2 (single isomer, unassigned) [Compound 285, (R) or (S)-3-[7-(4-Carbamoylphenoxy)-3-(trifluoromethyl)-4,5,6,7-tetrahydroindazol-1-yl]-N-(2,2-difluoro-1,3-benzodioxol-5-yl)-N-methyl-benzamide]	< 1000
Cc1nc2ncc(N(C)C(=O)c3cccc(-n4nc(C(F)(F)F)c5c4C(Oc4ccc(C(=O)O)cc4)CCC5)c3)cc2o1 (single isomer, unassigned) [Compound 286, (R) or (S)-4-[[1-[3-[Methyl-(2-methyloxazolo[4,5-b]pyridin-6-yl)carbamoyl]phenyl]-3-(trifluoromethyl)-4,5,6,7-tetrahydroindazol-7-yl]oxy]benzoic acid]	1000 to 2000
Cc1nc2ncc(N(C)C(=O)c3cccc(-n4nc(C(F)(F)F)c5c4C(Oc4ccc(C(=O)O)cc4)CCC5)c3)cc2o1 (single isomer, unassigned) [Compound 287, (S) or (R)-4-[[1-[3-[Methyl-(2-methyloxazolo[4,5-b]pyridin-6-yl)carbamoyl]phenyl]-3-(trifluoromethyl)-4,5,6,7-tetrahydroindazol-7-yl]oxy]benzoic acid]	< 1000
CN(C(=O)c1cccc(-n2nc(C(F)(F)F)c3c2C(Oc2ccc(C(=O)O)cc2)CCC3)c1)c1ccnc(OC(F)F)c1 (single isomer, unassigned) [Compound 288, (R) or (S)-4-[[1-[3-[[2-(Difluoromethoxy)-4-pyridyl]-methyl-carbamoyl]phenyl]-3-(trifluoromethyl)-4,5,6,7-tetrahydroindazol-7-yl]oxy]benzoic acid]	< 1000
CN(C(=O)c1cccc(-n2nc(C(F)(F)F)c3c2C(Oc2ccc(C(=O)O)cc2)CCC3)c1)c1ccnc(OC(F)F)c1 (single isomer, unassigned) [Compound 289, (S) or (R)-4-[[1-[3-[[2-(Difluoromethoxy)-4-pyridyl]-methyl-carbamoyl]phenyl]-3-(trifluoromethyl)-4,5,6,7-tetrahydroindazol-7-yl]oxy]benzoic acid]	< 1000
CN(C(=O)c1cccc(-n2nc(C(F)(F)F)c3c2C(Oc2ccc(C(=O)O)cc2)COC3)c1)c1ccnc(OC(F)F)c1 (single isomer, unassigned) [Compound 290, (R) or (S)-4-[[1-[3-[[2-(Difluoromethoxy)-4-pyridyl]-methyl-carbamoyl]phenyl]-3-(trifluoromethyl)-6,7-dihydro-4H-pyrano[4,3-c]pyrazol-7-yl]oxy]benzoic acid]	< 1000
CN(C(=O)c1cccc(-n2nc(C(F)(F)F)c3c2C(Oc2ccc(C(=O)O)cc2)COC3)c1)c1ccnc(OC(F)F)c1 (single isomer, unassigned) [Compound 291, (S) or (R)-4-[[1-[3-[[2-(difluoromethoxy)-4-pyridyl]-methyl-carbamoyl]phenyl]-3-(trifluoromethyl)-6,7-dihydro-4H-pyrano[4,3-c]pyrazol-7-yl]oxy]benzoic acid]	1000 to 2000
